US6620828B2, “Thiazole compounds and pharmaceutical compositions for inhibiting protein kinases and methods for their use” (Agouron Pharmaceuticals, Inc., priority 1999, dated 2003)

Columns and labels:
Type in all cases: biochemical
[1] = target: T1, phosphorylated VEGF-R2Δ50 (FLVK-P) (Homo sapiens, UniProt P35968, DEL940-989/E990V); experiment: VEGF-R2 coupled spectrophotometric (FLVK-P) assay; details: read-out: VEGF % inhibition at 20 μM, 20 μM; combinatorial library compounds
T1 construct: VEGF-R2Δ50 contains residues 806-939 and 990-1171; made in house; host or cells: baculovirus/insect cells
T1 sequence (P35968 with tags, fused parts or gaps DEL940-989/E990V limits assumed): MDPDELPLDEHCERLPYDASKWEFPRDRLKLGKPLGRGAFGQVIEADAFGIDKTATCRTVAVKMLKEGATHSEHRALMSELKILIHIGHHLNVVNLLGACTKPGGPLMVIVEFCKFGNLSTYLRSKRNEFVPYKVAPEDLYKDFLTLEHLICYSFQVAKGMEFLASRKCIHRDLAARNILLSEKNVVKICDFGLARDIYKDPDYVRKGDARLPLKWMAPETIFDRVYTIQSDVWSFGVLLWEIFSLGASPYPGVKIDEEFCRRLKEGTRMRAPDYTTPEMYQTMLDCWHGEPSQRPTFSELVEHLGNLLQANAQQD
How it was run: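 Baculovirus-expressed human VEGF-R2Δ50 (residues 806-939/990-1171, E990V) was autophosphorylated with 3 mM ATP, 40 mM MgCl2 for 2 h at 4° C. ADP formation was coupled via PK/LDH to NADH oxidation, read at 340 nm, with 5.1 mM poly(E4Y1), 1 mM ATP, 25 mM MgCl2, Hepes pH 7.5. Ki came from activity across compound concentrations.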

FL-CHK1 = target: T2, FL-CHK1 (Homo sapiens, UniProt O14757); experiment: CHK1 assay; details: 20 μM; combinatorial library compounds
T2 construct: C-terminally His-tagged full-length human CHK1 (FL-CHK1); 6xHis (C); made in house; host or cells: baculovirus/insect cells
T2 sequence (O14757 1-476): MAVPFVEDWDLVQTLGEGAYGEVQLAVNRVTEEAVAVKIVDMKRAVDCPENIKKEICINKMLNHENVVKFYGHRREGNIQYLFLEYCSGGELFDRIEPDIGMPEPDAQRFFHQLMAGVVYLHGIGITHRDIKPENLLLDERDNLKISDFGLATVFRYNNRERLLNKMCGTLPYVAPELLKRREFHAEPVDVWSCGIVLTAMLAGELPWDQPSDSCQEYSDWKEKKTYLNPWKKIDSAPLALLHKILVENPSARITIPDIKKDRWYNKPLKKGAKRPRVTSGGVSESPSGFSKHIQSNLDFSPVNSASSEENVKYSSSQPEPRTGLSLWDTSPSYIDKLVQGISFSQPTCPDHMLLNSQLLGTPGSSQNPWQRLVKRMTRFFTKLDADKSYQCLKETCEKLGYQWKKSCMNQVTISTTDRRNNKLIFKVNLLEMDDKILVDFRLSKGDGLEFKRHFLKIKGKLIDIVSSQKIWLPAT
How it was run: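 Full-length human CHK1 with C-terminal 6×His tag, made in baculovirus/insect cells, 10 nM, phosphorylating 0.125 mM Syntide-2 with 0.15 mM ATP in 50 mM Tris pH 7.5, 25 mM MgCl2, 400 mM NaCl. PK/LDH-coupled NADH oxidation read at 340 nm. Ki from initial rates over varied compound concentrations.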

CDK2/Cyclin A complex = CDK2/Cyclin A complex (Homo sapiens, UniProt P24941); experiment: CDK2/Cyclin A assay; details: 1.0 μM; combinatorial library compounds
How it was run: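 Radiometric assay: 150 nM CDK2/cyclin A (insect-cell CDK2, truncated cyclin A) phosphorylates His-tagged Rb fragment (residues 386-928) with 25 μM ATP plus [32P]ATP, pH 7.4 HEPES, 2% DMSO, 30 °C for 20 min. Filter-captured product counted by phosphorimager; apparent Ki from competitive or tight-binding inhibition fits.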

CDK4/Cyclin D3 complex = target: T3, CDK4/Cyclin D3 complex (Homo sapiens, UniProt P11802); experiment: CDK4/Cyclin D assay; details: 1.0 μM; combinatorial library compounds
T3 construct: made in house; host or cells: insect cells co-infected with baculovirus vectors
T3 sequence (P11802 whole entry): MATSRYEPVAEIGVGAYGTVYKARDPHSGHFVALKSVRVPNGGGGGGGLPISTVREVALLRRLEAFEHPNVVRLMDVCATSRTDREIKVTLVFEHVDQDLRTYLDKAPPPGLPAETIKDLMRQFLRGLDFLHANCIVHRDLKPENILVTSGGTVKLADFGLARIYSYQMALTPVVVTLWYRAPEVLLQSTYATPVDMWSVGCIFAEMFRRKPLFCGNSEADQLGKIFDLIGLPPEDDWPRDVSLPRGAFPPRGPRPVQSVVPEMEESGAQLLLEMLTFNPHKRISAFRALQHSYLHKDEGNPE
T3 sequence (P30281 whole entry partner): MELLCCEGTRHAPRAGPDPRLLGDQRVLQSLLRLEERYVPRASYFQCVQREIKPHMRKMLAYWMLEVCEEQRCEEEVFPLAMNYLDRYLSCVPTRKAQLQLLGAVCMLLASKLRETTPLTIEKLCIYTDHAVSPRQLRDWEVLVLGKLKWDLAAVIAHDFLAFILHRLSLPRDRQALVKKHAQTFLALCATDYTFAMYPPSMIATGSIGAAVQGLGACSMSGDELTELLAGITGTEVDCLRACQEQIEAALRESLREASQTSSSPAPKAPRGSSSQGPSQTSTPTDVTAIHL
How it was run: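 Insect-cell-expressed CDK4/cyclin D3 (50 nM) phosphorylating His-tagged Rb fragment (residues 386-928) with 25 μM [^32P]ATP in HEPES pH 7.4, MgCl2, 2% DMSO; 20 min at 30 °C, EDTA stop. Filter-captured 32P by phosphorimager; apparent Ki from competitive or tight-binding inhibition fits.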

| Structure (SMILES) | inhibition at 20 µM [1] [%] | inhibition at 20 µM (FL-CHK1) [%] | inhibition at 1 µM (CDK2/Cyclin A complex) [%] | inhibition at 1 µM (CDK4/Cyclin D3 complex) [%] |
| --- | --- | --- | --- | --- |
| CN(C)c1ccc(Nc2nc(N)c(-c3nc(-c4ccc(O)c(O)c4)cs3)s2)cc1 | 34 | 46.5 | 16.8 | 53 |
| CN(C)c1ccc(Nc2nc(N)c(-c3nc(-c4cc(Br)c(Cl)s4)cs3)s2)cc1 | 18 | 22.8 | 17.6 | 69.1 |
| CN(C)c1ccc(Nc2nc(N)c(-c3nc(-c4ccc(Cl)c([N+](=O)[O-])c4)cs3)s2)cc1 | -2 | 16 | 4.1 | 59.8 |
| CN(C)c1ccc(Nc2nc(N)c(-c3nc(-c4ccc(-c5ccc(Cl)cc5Cl)o4)cs3)s2)cc1 | 5 | -7.6 | 17.7 | 35.6 |
| COc1ccccc1-c1csc(-c2sc(Nc3ccc(N(C)C)cc3)nc2N)n1 | 0 | 14.8 | -6.4 | 8.7 |
| Cc1ccc(-c2csc(-c3sc(Nc4ccc(N(C)C)cc4)nc3N)n2)cc1 | 16 | 15.2 | 17.7 | 61.6 |
| COc1ccc(-c2csc(-c3sc(Nc4ccc(N(C)C)cc4)nc3N)n2)c(OC)c1 | 1 | 3.1 | 6.7 | 35.4 |
| CN(C)c1ccc(Nc2nc(N)c(-c3nc(-c4ccc(Cl)cc4)cs3)s2)cc1 | 10 | 2.5 | 11.2 | 36.5 |
| COc1ccc(OC)c(-c2csc(-c3sc(Nc4ccc(N(C)C)cc4)nc3N)n2)c1 | 13 | 14.1 | 15.6 | 68.7 |
| CCOC(=O)c1cc(-c2csc(-c3sc(Nc4ccc(N(C)C)cc4)nc3N)n2)on1 | 9 | -4.5 | 13.4 | 33.7 |
| CN(C)c1ccc(Nc2nc(N)c(-c3nc(-c4ccc([N+](=O)[O-])cc4)cs3)s2)cc1 | 8 | 17.8 | 22.1 | 50.4 |
| Cc1cc(-c2csc(-c3sc(Nc4ccc(N(C)C)cc4)nc3N)n2)ccc1Cl | 2 | 16.6 | 11.7 | 15.2 |
| CN(C)c1ccc(Nc2nc(N)c(-c3nc(-c4ccc(-c5ccccc5)cc4)cs3)s2)cc1 | -12 | 5 | 14.5 | -12.6 |
| CN(C)c1ccc(Nc2nc(N)c(-c3nc(-c4ccc(C#N)cc4)cs3)s2)cc1 | 11 | 8.2 | 14.3 | 36.4 |
| CN(C)c1ccc(Nc2nc(N)c(-c3nc(-c4ccc(Cl)cc4Cl)cs3)s2)cc1 | 19 | 26.9 | 17.3 | 76.1 |
| Cc1onc(-c2ccccc2)c1-c1csc(-c2sc(Nc3ccc(N(C)C)cc3)nc2N)n1 | 25 | 8.1 | 8.3 | 59.8 |
| CN(C)c1ccc(Nc2nc(N)c(-c3nc(-c4ccc5c(c4)OCCO5)cs3)s2)cc1 | 16 | 40.8 | 5 | 56.5 |
| CN(C)c1ccc(Nc2nc(N)c(-c3nc(-c4ccc(F)cc4)cs3)s2)cc1 | 41 | 41.7 | 34.8 | 56 |
| CN(C)c1ccc(Nc2nc(N)c(-c3nc(-c4ccc(OC(=O)c5ccccc5)cc4)cs3)s2)cc1 | -4 | 5.5 | 8.7 | 49.4 |

| Structure (SMILES) | inhibition at 20 µM [1] [%] | inhibition at 20 µM (FL-CHK1) [%] | inhibition at 1 µM (CDK2/Cyclin A complex) [%] | inhibition at 1 µM (CDK4/Cyclin D3 complex) [%] |
| --- | --- | --- | --- | --- |
| CN(C)c1ccc(Nc2nc(N)c(-c3nc(-c4ccc[nH]4)cs3)s2)cc1 | 28 | 32.5 | 31.7 | 63.6 |
| CN(C)c1ccc(Nc2nc(N)c(-c3nc(-c4ccc(F)c(F)c4)cs3)s2)cc1 | 8 | 4.2 | 3.3 | 8.1 |
| CN(C)c1ccc(Nc2nc(N)c(-c3nc(-c4cccc([N+](=O)[O-])c4)cs3)s2)cc1 | 6 | 13.8 | 17.1 | 27 |
| CN(C)c1ccc(Nc2nc(N)c(-c3nc(-c4ccc(Cl)c(Cl)c4)cs3)s2)cc1 | 0 | 5.1 | 9.2 | -6.5 |
| CN(C)c1ccc(Nc2nc(N)c(-c3nc(-c4ccc(O)cc4)cs3)s2)cc1 | 46 | 47.1 | 26.6 | 66.8 |
| Cc1cc(-c2csc(-c3sc(Nc4ccc(N(C)C)cc4)nc3N)n2)cc(C)c1O | 24 | 27.2 | 29.8 | 52.4 |
| CN(C)c1ccc(Nc2nc(N)c(-c3nc(-c4c(Cl)c(Cl)nc(Cl)c4Cl)cs3)s2)cc1 | 35 | 41.4 | 33.3 | 64.4 |
| Cc1ccc(-c2csc(-c3sc(Nc4ccc(N(C)C)cc4)nc3N)n2)c(C)c1 | 21 | -0.9 | 16.1 | 23.3 |
| CN(C)c1ccc(Nc2nc(N)c(-c3nc(-c4ccc(CC(=O)O)s4)cs3)s2)cc1 | 28 | 38.1 | 6.3 | 69.4 |
| CN(C)c1ccc(Nc2nc(N)c(-c3nc(-c4cc(-c5ccc(Cl)c(Cl)c5)no4)cs3)s2)cc1 | 1 | -2.8 | 12.6 | -17.5 |
| CCCCCc1ccc(-c2csc(-c3sc(Nc4ccc(N(C)C)cc4)nc3N)n2)cc1 | -8 | 9.5 | -6 | 36.2 |
| CC(=O)Oc1ccccc1-c1csc(-c2sc(Nc3ccc(N(C)C)cc3)nc2N)n1 | 24 | -4.6 | 27.8 | 48.5 |
| CN(C)c1ccc(Nc2nc(N)c(-c3nc(-c4c(Cl)cc(C(F)(F)F)cc4Cl)cs3)s2)cc1 | 26 | 37.5 | 29.1 | 82.6 |
| CN(C)c1ccc(Nc2nc(N)c(-c3nc(-c4ccc(F)cc4F)cs3)s2)cc1 | 34 | 25.2 | 20.3 | 64.3 |
| CCN(CC)c1ccc(-c2csc(-c3sc(Nc4ccc(N(C)C)cc4)nc3N)n2)cc1 | 16 | 17.4 | 14.6 | 57.8 |
| CN(C)c1ccc(Nc2nc(N)c(-c3nc(-c4csc5ccccc45)cs3)s2)cc1 | 22 | 12.6 | 23.5 | 57.7 |
| CN(C)c1ccc(Nc2nc(N)c(-c3nc(-c4cc(C(=O)C(Cl)(Cl)Cl)n(C)c4)cs3)s2)cc1 | 3 | 5.2 | 36.7 | 45.2 |
| CN(C)c1ccc(Nc2nc(N)c(-c3nc(-c4cc5cc(Cl)ccc5o4)cs3)s2)cc1 | -3 | 7.6 | 16.9 | 29.6 |
| CN(C)c1ccc(Nc2nc(N)c(-c3nc(-c4cccc(Br)c4)cs3)s2)cc1 | 17 | 14.2 | 29 | 30.1 |
